Assay results as given in patent US10421760B2, “Pyrrolo[2,3-d]pyrimidine compound or salt thereof” (TAIHO PHARMACEUTICAL CO., LTD., priority 2015, dated 2019).

How the values were obtained:
[1] = molecular target: purified recombinant human JAK1 protein (Homo sapiens (Human), UniProt P23458); experiment: JAK1 kinase-inhibiting activity (mobility shift, LabChip EZ Reader II); assay type: biochemical; conditions: ATP 75 μM, 25° C., 120 minutes
Method: 1) Measurement of JAK1 Kinase-Inhibiting Activity
The activity of the compound of the present invention to inhibit the activity of JAK1 kinase was measured.
(§1) Among materials for the measurement of this inhibiting activity, a substrate peptide and a kinase protein were acquired as follows. As such a substrate peptide, a substrate peptide for QSS Assist JAK1-MSA assay kit (Carna Biosciences, Inc.) was purchased. As such a kinase protein, a purified recombinant human JAK1 protein (Carna Biosciences, Inc.) was purchased.
The method for measuring the inhibiting activity is as follows. First, the compounds of the present invention were each dissolved in dimethyl sulfoxide (DMSO), and a serial dilution was then prepared using DMSO. Subsequently, a serial dilution solution of the compound (the final concentration of DMSO upon a kinase reaction: 5.0%) or DMSO (final concentration: 5.0%) was mixed with a solution comprising the substrate peptide (final concentration: 1 μM), magnesium chloride (final concentration: 5 mM) and ATP (final concentration: 75 μM) in a buffer for kinase reaction (20 mM HEPES (pH 7.5), 2 mM dithiothreitol and 0.01% Triton X-100). Thereafter, a JAK1 protein was further added to the mixed solution, and the obtained mixture was then incubated at 25° C. for 120 minutes to carry out a kinase reaction. To the reaction solution, EDTA was added to a final concentration of 30 mM, so as to terminate the reaction. Finally, using LabChip EZ Reader II (Perkin Elmer Corp.), an unphosphorylated substrate peptide (S) and a phosphorylated peptide (P) were subjected to microchannel capillary electrophoresis, so that the two peptides were separated from each other and were then detected. The amount of a phosphorylation reaction was obtained based on the heights of the peaks of S and P, and the concentration of the compound capable of inhibiting 50% of the phosphorylation reaction was defined as an IC50 value (nM).

[2] = molecular target: purified recombinant human JAK3 protein (Homo sapiens (Human), UniProt P52333); experiment: JAK3 kinase-inhibiting activity (mobility shift, LabChip EZ Reader II); assay type: biochemical; conditions: ATP 5 μM, 25° C., 80 minutes
Chain of purified recombinant human JAK3 protein (P52333 whole entry): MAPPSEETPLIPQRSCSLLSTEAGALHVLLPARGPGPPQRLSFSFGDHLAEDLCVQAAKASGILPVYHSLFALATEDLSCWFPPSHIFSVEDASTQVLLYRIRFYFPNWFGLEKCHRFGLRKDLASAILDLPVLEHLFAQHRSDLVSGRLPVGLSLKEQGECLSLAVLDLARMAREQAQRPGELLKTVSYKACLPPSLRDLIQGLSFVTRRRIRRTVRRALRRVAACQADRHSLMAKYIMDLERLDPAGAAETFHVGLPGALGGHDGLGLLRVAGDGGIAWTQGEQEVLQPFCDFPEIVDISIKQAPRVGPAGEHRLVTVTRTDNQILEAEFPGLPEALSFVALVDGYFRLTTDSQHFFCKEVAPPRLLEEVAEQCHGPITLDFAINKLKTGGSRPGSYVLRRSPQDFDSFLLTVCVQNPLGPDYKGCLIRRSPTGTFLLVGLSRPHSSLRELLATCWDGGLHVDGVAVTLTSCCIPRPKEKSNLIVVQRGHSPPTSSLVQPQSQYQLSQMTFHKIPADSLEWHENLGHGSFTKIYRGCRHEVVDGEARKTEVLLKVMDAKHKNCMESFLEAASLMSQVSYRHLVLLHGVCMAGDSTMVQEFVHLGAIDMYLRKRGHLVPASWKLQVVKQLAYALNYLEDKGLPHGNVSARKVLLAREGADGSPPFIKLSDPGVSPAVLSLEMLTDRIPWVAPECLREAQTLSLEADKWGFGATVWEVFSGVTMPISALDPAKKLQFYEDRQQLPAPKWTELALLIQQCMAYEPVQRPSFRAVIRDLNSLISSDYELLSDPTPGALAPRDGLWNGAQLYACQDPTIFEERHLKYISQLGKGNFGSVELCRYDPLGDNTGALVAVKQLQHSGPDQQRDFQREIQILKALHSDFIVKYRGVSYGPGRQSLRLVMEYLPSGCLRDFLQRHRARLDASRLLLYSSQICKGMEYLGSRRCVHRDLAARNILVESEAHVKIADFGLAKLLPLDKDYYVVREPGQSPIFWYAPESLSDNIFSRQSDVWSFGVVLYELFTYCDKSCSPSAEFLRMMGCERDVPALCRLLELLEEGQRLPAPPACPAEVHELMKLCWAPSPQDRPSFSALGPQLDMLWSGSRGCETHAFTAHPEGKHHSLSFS
Method: 3) Measurement of JAK3 Kinase-Inhibiting Activity
The activity of the compound of the present invention to inhibit the activity of JAK3 kinase was measured.
as §1, with “JAK3-MSA” for “JAK1-MSA”, “JAK3” for “JAK1”
The method for measuring the inhibiting activity is as follows. First, a serial dilution of the compound of the present invention was prepared by the same method as that described in the above section regarding JAK1. This serial dilution solution (the final concentration of DMSO upon a kinase reaction: 5.0%) or DMSO (final concentration: 5.0%) was mixed with a solution comprising the substrate peptide (final concentration: 1 μM), magnesium chloride (final concentration: 5 mM) and ATP (final concentration: 5 μM) in a buffer for kinase reaction (20 mM HEPES (pH 7.5), 2 mM dithiothreitol and 0.01% Triton X-100). Thereafter, a JAK3 protein was further added to the mixed solution, and the obtained mixture was then incubated at 25° C. for 80 minutes to carry out a kinase reaction. To the reaction solution, EDTA was added to a final concentration of 30 mM, so as to terminate the reaction. After termination of the reaction, the measurement and the data analysis were carried out by the same methods as those described in the above section regarding JAK1.

[3] = system: IL-2-induced IFN-γ production; experiment: Mouse IL-2-induced IFN-γ production test; assay type: in vivo; conditions: oral 1 mg/kg and 3 mg/kg, serum 3 hours after IL-2, BALB/c mice
Method: The inhibitory activity of the compound of the present invention and the compounds of comparative examples on mouse IL-2-induced IFN-γ production caused by JAK3 was measured (Arthritis Rheum. 2010; 62 (8): 2283-93, Inflammation Research 2015; 64 (1): 41-51).
Seven-week-old male BALB/c mice (Charles River Japan) were divided into five groups (6 mice per group), namely, a vehicle group, a Compound 7 (1 mpk) group, a Compound 7 (3 mpk) group, a Comparative Example 12 (1 mpk) group, and a Comparative Example 12 (3 mpk) group. Compound 7 and the compound of Comparative Example 12 were each administered to the 1 mpk group and the 3 mpk group via oral administration at doses of 1 mg/kg and 3 mg/kg, respectively. […] Three hours after administration of IL-2, blood was collected from all of the five groups, and the IFN-γ concentration in the serum was measured using BD In Vivo Capture Assay for Mouse IFN-γ (BD Biosciences). The relative amount of IFN-γ generated by IL-2 stimulation was calculated according to the following calculation formula: Relative amount of IFN-γ=(IFN-γ concentration of each group)×100/(IFN-γ concentration of vehicle group), and the results are shown in FIG. 1 (mean value±standard error: regarding vs Vehicle, Dunnett test, *: p<0.05, ***: p<0.001; regarding vs Comparative Example 12 (3 mpk), Student t-test, ##: p<0.01).

human PBMC = experiment: IL-2-dependent growth of human peripheral blood mononuclear cells (CellTiter-Glo); assay type: cell-based; conditions: 48 h, IL-2 2 ng/mL stimulation, 2 days
Method: The activity of the compound of the present invention to inhibit the IL-2-dependent growth reaction of human PBMC, which is caused by JAK3, was measured (Arthritis Rheum. 2010; 62(8): 2283-93).
Using a medium comprising 10 μg/mL PHA-M (Sigma) (which is RPMI-1640 (Sigma) comprising 10% human serum type AB (MP Biomedicals)), human PBMC (C.T.L.) (cell density: 1×10^6 cells/mL) was cultured at 37° C. in a culture vessel comprising 5% carbon dioxide for 3 days. Thereafter, the culture was washed with RPMI-1640 four times, and a medium (RPMI-1640 comprising 10% human serum type AB) was then added to the resultant culture to prepare a cell suspension. The cells (1×10^4 cells per well) and the serially diluted compound of the present invention were added to each well of a 96-well U-bottom microplate, and the thus obtained mixture was then cultured at 37° C. in a culture vessel comprising 5% carbon dioxide for 30 minutes. After completion of the culture, recombinant human IL-2 (Peprotech) was added to the culture to a final concentration of 2 ng/mL, and the obtained mixture was then stirred at 37° C. in a culture vessel comprising 5% carbon dioxide for 2 days (1×10^4 cells/100 μl/each well). After completion of the culture, the resultant was left at a room temperature for 30 minutes, and 100 μl of CellTiter-Glo Luminescent Cell Viability Assay (Promega) was then added to the resultant, followed by stirring it. Thereafter, the reaction mixture was left for 10 minutes, and the amount of a luminescence derived from living cells in each well was then measured using a microplate reader (TECAN). The inhibition rate of the present compound to the cell growth caused by IL-2 stimulation was calculated, and the concentration of the compound capable of inhibiting 50% of the cell growth was defined as an IC50 value (nM).

[4] = molecular target: purified recombinant human JAK2 protein (Homo sapiens (Human), UniProt O60674); experiment: JAK2 kinase-inhibiting activity (mobility shift, LabChip EZ Reader II); assay type: biochemical; conditions: ATP 10 μM, 25° C., 80 minutes
Chain of purified recombinant human JAK2 protein (O60674 whole entry): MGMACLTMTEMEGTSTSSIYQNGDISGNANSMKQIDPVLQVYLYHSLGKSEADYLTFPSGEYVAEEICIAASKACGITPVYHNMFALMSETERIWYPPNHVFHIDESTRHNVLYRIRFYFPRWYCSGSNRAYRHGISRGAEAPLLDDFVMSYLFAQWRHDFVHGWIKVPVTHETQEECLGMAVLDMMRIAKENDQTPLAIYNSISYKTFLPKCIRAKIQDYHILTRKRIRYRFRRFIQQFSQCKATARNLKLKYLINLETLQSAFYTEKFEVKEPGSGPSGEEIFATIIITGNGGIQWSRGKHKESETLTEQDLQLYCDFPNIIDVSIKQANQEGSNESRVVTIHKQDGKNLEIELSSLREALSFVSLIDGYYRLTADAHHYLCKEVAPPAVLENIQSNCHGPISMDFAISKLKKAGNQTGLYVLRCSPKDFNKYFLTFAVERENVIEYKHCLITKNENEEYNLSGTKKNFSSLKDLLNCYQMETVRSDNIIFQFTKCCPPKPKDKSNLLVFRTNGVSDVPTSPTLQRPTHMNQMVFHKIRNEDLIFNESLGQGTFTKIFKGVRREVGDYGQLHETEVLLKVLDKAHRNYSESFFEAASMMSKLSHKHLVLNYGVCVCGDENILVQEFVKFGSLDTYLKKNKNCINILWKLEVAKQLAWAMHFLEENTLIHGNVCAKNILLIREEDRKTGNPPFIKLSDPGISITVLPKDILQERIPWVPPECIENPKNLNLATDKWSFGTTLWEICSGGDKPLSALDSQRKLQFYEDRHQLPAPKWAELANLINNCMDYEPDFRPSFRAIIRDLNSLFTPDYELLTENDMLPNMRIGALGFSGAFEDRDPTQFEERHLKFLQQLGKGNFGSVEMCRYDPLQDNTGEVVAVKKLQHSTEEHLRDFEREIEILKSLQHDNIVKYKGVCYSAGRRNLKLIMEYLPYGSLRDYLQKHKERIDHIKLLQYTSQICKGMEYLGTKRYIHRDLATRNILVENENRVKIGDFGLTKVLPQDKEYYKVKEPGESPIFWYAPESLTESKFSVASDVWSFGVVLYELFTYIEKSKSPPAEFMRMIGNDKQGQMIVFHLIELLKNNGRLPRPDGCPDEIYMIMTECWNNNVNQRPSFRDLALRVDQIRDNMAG
Method: 2) Measurement of JAK2 Kinase-Inhibiting Activity
The activity of the compound of the present invention to inhibit the activity of JAK2 kinase was measured.
as §1, with “FL-Peptide 22 (Perkin Elmer Corp.)” for “a substrate peptide for QSS Assist JAK1-MSA assay kit (Carna Biosciences, Inc.)”, “JAK2” for “JAK1”
The method for measuring the inhibiting activity is as follows. First, a serial dilution of the compound of the present invention was prepared by the same method as that described in the above section regarding JAK1. This serial dilution solution (the final concentration of DMSO upon a kinase reaction: 5.0%) or DMSO (final concentration: 5.0%) was mixed with a solution comprising the substrate peptide (final concentration: 1 μM), magnesium chloride (final concentration: 10 mM) and ATP (final concentration: 10 μM) in a buffer for kinase reaction (15 mM Tris (pH 7.5), 2 mM dithiothreitol and 0.01% Tween 20). Thereafter, a JAK2 protein was further added to the mixed solution, and the obtained mixture was then incubated at 25° C. for 80 minutes to carry out a kinase reaction. To the reaction solution, EDTA was added to a final concentration of 30 mM, so as to terminate the reaction. After termination of the reaction, the measurement and the data analysis were carried out by the same methods as those described in the above section regarding JAK1.

Chain of purified recombinant human JAK1 protein (P23458 whole entry): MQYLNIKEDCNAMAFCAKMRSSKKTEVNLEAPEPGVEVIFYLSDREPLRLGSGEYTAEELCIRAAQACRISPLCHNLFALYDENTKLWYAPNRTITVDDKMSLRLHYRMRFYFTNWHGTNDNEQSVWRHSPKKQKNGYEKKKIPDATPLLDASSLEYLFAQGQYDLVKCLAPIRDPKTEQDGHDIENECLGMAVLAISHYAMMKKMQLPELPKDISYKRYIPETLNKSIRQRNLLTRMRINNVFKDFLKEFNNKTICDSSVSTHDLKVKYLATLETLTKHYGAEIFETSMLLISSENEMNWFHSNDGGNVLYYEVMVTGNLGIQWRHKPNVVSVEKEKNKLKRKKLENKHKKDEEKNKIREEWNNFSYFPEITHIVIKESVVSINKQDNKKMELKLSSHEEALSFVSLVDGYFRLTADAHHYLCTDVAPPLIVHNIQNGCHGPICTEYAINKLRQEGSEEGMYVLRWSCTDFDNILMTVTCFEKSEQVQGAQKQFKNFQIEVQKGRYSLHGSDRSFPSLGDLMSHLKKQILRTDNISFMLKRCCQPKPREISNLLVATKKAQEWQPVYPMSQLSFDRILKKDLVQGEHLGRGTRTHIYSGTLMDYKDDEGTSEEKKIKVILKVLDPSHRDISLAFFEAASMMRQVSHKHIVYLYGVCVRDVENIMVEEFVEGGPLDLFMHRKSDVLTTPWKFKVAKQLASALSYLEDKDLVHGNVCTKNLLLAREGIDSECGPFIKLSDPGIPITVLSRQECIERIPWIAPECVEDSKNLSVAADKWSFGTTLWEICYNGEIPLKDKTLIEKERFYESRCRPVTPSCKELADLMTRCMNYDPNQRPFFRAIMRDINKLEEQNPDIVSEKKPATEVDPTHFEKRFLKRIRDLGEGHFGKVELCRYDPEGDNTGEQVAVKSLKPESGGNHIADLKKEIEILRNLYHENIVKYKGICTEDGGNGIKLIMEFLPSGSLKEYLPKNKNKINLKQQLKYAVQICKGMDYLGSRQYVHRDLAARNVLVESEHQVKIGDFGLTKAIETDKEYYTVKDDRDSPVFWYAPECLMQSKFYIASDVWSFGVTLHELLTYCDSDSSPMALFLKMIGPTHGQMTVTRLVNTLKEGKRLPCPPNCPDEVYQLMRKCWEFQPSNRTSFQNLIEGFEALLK

SMILES | IC50 [1] [nM] | IC50 [2] [nM] | suppression of IFN-γ production in vivo [3] | IC50 (human PBMC) [nM] | IC50 [4] [nM]
C=CC(=O)Nc1cccc(-c2ncnc3[nH]cc(-c4ccccc4)c23)c1 [Comparative Example 12, N-(3-(5-Phenyl-7H-pyrrolo[2,3-d]pyrimidin-4-yl)phenyl)acrylamide, reference compound] | > 1000 | 0.09 | did not exhibit such a significant IFN-γ production-suppressing action | 546 | > 1000
C=CC(=O)NC1CCC=C(c2ncnc3[nH]cc(-c4ccco4)c23)C1 (stereo not shown) [Compound 5, N-(3-(5-(Furan-2-yl)-7H-pyrrolo[2,3-d]pyrimidin-4-yl)cyclohex-3-en-1-yl)acrylamide] | 720 | < 0.3 |  | 38 | 430
C=CC(=O)N[C@H]1CCC[C@H](c2ncnc3[nH]cc(-c4ccco4)c23)C1 [Comparative Example 11(b), N-((1S,3S)-3-(5-(Furan-2-yl)-7H-pyrrolo[2,3-d]pyrimidin-4-yl)cyclohexyl)acrylamide, reference compound] | > 10000 | 19 |  | 1940 | 880
C=CC(=O)NC1CCC=C(c2ncnc3[nH]cc(-c4cccs4)c23)C1 (stereo not shown) [Compound 2, N-(3-(5-(Thiophen-2-yl)-7H-pyrrolo[2,3-d]pyrimidin-4-yl)cyclohex-3-en-1-yl)acrylamide] | 900 | < 0.3 |  | 110 | 480
C=CC(=O)NC1CC=C(c2ncnc3[nH]cc(-c4ccco4)c23)C1 (stereo not shown) [Compound 8, N-(3-(5-(Furan-2-yl)-7H-pyrrolo[2,3-d]pyrimidin-4-yl)cyclopent-3-en-1-yl)acrylamide] | 1400 | < 0.3 |  | 83 | 430
C=CC(=O)N[C@H]1CCC=C(c2ncnc3[nH]cc(-c4ccco4)c23)C1 [Compound 7, (S)—N-(3-(5-(Furan-2-yl)-7H-pyrrolo[2,3-d]pyrimidin-4-yl)cyclohex-3-en-1-yl)acrylamide] | 440 | < 0.3 |  | 18 | 330
